Design in all cases: dose or concentration left out as unconfirmed
One test concerns the target T1, ACKR4 (Homo sapiens, UniProt Q9NPB9).
T1 sequence (Q9NPB9 1-350): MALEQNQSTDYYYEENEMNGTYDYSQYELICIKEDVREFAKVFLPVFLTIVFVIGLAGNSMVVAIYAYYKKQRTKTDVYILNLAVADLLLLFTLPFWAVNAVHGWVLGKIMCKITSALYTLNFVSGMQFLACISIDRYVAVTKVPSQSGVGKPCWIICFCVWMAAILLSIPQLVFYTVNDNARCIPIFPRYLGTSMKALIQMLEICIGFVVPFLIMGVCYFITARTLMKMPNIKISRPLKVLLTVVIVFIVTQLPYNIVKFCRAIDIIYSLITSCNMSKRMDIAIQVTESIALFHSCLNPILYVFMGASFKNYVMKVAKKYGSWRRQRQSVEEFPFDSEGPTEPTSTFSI
Nature of the test: Figure S2a opioid peptide screen on chemokine receptors. Particulars: read-out: ACKR4 activity, ctrl+ = 100, Figure S2a.

The target in the next test is ACKR3 (Homo sapiens, UniProt P25106). Briefly: cell-based. Particulars: read-out: ACKR3 activity, ctrl+ = 100, Figure S2a.
Sequence of ACKR3 (P25106 whole entry): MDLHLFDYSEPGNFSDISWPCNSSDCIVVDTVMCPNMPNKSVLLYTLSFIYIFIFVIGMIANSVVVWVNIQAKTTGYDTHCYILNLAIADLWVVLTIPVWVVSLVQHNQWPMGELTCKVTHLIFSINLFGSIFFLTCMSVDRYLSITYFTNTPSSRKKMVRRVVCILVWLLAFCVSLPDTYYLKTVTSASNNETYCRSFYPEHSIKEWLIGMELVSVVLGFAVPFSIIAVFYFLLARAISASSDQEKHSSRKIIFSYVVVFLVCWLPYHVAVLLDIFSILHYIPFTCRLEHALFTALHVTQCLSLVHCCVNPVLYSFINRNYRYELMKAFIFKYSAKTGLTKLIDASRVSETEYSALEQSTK
The target in the next test is T2, CCR3 (Homo sapiens, UniProt P51677).
T2 sequence (P51677 1-355): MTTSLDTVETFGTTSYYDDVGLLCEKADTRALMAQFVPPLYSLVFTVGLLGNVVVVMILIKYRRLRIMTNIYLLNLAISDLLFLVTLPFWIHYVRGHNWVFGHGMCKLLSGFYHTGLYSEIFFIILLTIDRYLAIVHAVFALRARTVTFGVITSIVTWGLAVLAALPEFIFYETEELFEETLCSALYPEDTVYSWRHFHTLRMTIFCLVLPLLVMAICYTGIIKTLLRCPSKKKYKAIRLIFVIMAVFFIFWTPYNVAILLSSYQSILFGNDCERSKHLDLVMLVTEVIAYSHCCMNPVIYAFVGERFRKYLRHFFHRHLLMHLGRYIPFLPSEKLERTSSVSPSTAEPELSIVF
Briefly: Figure S2a opioid peptide screen on chemokine receptors. As to conditions: read-out: CCR3 activity, ctrl+ = 100, Figure S2a.

Another test addresses T3, CCR10 (Homo sapiens, UniProt P46092).
T3 construct: expressed in transfected cells
T3 sequence (P46092 1-362): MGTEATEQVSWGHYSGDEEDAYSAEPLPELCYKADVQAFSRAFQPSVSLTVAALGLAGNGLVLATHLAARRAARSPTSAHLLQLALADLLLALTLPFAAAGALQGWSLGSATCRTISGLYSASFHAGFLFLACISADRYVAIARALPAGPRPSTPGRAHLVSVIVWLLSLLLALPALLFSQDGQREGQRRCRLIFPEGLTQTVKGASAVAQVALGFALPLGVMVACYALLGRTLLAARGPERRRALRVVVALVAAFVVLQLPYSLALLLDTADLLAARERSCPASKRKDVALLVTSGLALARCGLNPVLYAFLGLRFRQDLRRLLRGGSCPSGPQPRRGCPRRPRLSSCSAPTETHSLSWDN
The test is described as above. Format: cell-based.

Another test concerns the target T4, CXCR1 (Homo sapiens, UniProt P25024).
T4 construct: expressed in transfected cells
T4 sequence (P25024 1-350): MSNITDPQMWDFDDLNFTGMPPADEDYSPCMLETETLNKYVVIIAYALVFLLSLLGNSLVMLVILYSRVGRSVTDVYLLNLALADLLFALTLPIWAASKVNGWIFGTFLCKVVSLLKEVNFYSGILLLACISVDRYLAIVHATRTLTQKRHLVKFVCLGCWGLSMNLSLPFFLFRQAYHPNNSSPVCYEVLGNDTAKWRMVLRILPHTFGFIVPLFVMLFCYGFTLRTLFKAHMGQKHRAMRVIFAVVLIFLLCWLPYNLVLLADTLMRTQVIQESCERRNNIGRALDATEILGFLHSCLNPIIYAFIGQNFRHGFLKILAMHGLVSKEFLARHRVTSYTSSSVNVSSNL
The description is as above. It is filed as cell-based.

The target in a further test is T5, CCR9 (Homo sapiens, UniProt P51686).
T5 construct: expressed in transfected cells
T5 sequence (P51686 1-369): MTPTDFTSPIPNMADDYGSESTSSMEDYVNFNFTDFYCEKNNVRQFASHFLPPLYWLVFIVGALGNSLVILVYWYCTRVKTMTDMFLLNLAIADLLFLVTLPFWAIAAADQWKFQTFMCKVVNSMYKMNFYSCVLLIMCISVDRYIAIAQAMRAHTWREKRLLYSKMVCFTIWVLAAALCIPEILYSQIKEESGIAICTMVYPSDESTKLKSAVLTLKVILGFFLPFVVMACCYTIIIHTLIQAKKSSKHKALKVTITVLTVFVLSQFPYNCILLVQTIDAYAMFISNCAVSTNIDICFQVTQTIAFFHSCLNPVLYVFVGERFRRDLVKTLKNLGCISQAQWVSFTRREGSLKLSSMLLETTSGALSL
The test is described as above. Format: cell-based.

In another test the target is CCR8 (Homo sapiens, UniProt P51685). Described as above. Particulars: read-out: CCR8 activity, ctrl+ = 100, Figure S2a.
Sequence of CCR8 (P51685 whole entry): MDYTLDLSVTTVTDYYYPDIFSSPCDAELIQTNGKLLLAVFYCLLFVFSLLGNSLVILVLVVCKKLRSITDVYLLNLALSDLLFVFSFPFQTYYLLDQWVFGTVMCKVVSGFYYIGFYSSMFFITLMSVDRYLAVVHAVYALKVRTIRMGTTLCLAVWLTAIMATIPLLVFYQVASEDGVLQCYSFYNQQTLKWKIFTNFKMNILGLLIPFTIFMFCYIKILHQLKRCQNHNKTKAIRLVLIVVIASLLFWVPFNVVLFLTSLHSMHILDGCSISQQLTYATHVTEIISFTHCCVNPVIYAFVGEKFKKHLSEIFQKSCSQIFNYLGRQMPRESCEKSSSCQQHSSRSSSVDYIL
The target in a further test is T6, CXCR6 (Homo sapiens, UniProt O00574).
T6 construct: expressed in transfected cells
T6 sequence (O00574 whole entry): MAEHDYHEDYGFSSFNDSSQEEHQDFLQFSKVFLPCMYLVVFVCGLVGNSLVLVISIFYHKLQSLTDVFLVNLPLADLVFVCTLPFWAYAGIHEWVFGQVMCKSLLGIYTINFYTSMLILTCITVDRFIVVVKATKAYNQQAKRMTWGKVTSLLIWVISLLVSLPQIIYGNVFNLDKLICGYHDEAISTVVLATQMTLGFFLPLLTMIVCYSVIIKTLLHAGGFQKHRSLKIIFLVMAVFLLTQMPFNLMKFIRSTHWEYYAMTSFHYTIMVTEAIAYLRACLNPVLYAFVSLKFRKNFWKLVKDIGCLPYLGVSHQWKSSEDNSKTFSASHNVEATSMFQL
The description is as above. It is filed as cell-based.

The mark [1] stands for this setting: replicate 1, read-out: CCR10 activity, ctrl+ = 100.
The mark [2] stands for this setting: replicate 2, read-out: CCR10 activity, ctrl+ = 100.
Where [3] appears, read: replicate 3, read-out: CCR10 activity, ctrl+ = 100.
Setting [4] is: replicate 1, read-out: CXCR1 activity, ctrl+ = 100.
Setting [5] is: replicate 2, read-out: CXCR1 activity, ctrl+ = 100.
The mark [6] stands for this setting: replicate 3, read-out: CXCR1 activity, ctrl+ = 100.
Where [7] appears, read: replicate 1, read-out: CCR9 activity, ctrl+ = 100.
[8] abbreviates: replicate 2, read-out: CCR9 activity, ctrl+ = 100.
The mark [9] stands for this setting: replicate 3, read-out: CCR9 activity, ctrl+ = 100.
Where [10] appears, read: replicate 1, read-out: CXCR6 activity, ctrl+ = 100.
Setting [11] is: replicate 2, read-out: CXCR6 activity, ctrl+ = 100.
The mark [12] stands for this setting: replicate 3, read-out: CXCR6 activity, ctrl+ = 100.

Our source for the activation values is publication PMC7305236, “The atypical chemokine receptor ACKR3/CXCR7 is a broad-spectrum scavenger for opioid peptides” (Nature Communications, 2020).

Where two headings read alike, the source gives them in different places. Starred links: 1 amine or outer side, 2 acyl side, 3 side chain; linkers in the order of their positions; H or OH if unused. Non-standard residues stand in square brackets, D forms with d. Residues, ends and D or L forms follow the SMILES beside them. X1 = N[C@@H](Cc1ccccc1)CN(CC(=O)[*:2])[*:1]

Regarding `CC[C@H](C)[C@H](NC(=O)[C@H](CCCNC(=N)N)NC(=O)[C@H](CCCNC(=N)N)NC(=O)[C@H](CC(C)C)NC(=O)[C@H](Cc1ccccc1)NC(=O)CNC(=O)CNC(=O)[C@@H](N)Cc1ccc(O)cc1)C(=O)N[C@@H](CCCNC(=N)N)C(=O)N1CCC[C@H]1C(=O)N[C@@H](CCCCN)C(=O)N[C@@H](CC(C)C)C(=O)N[C@@H](CCCCN)C(=O)N[C@@H](Cc1c[nH]c2ccccc12)C(=O)N[C@@H](CC(=O)O)C(=O)N[C@@H](CC(N)=O)C(=O)N[C@@H](CCC(N)=O)C(=O)O` [Dynorphin A], the activation is -2.58% at ACKR4 (replicate 1); -4.52% at ACKR4 (replicate 2); 0.188% on ACKR4 (replicate 3); 127% on ACKR3 (replicate 1); 60.7% at ACKR3 (replicate 2); 99% on ACKR3 (replicate 3). For the same compound, the activation on CCR3 (replicate 1) was 33.4%; on CCR3 (replicate 2) it was -17%; at CCR3 (replicate 3), 43.5%; at CCR10 (setting [1]), 2.9%; at CCR10 (setting [2]) it was -7.47%; on CCR10 (setting [3]), 4.56%. Further, the activation on CXCR1 (setting [4]) was 0.562%; at CXCR1 (setting [5]), 0.211%; on CXCR1 (setting [6]) it was 0.227%; at CCR9 (setting [7]), 0.116%; at CCR9 (setting [8]), -0.279%; at CCR9 (setting [9]), 10.9%. The activation on CCR8 (replicate 1) was -0.0612%; on CCR8 (replicate 2), -35.8%; on CCR8 (replicate 3), -0.797%; at CXCR6 (setting [10]), -0.0479%; at CXCR6 (setting [11]), -0.578%; on CXCR6 (setting [12]), 0.283%.

Consider `CC(C)C[C@H](NC(=O)[C@H](Cc1ccccc1)NC(=O)CNC(=O)CNC(=O)[C@@H](N)Cc1ccc(O)cc1)C(=O)N[C@@H](CCCN=C(N)N)C(=O)N[C@@H](CCCN=C(N)N)C(=O)N[C@@H](CCC(N)=O)C(=O)N[C@@H](Cc1ccccc1)C(=O)N[C@@H](CCCCN)C(=O)N[C@H](C(=O)N[C@H](C(=O)N[C@H](C(=O)O)[C@@H](C)O)C(C)C)C(C)C` [Dynorphin B], for which the activation on ACKR4 (replicate 1) is -5.6%; on ACKR4 (replicate 2), -0.628%; on ACKR4 (replicate 3), 0.166%; at ACKR3 (replicate 1), 87%; at ACKR3 (replicate 2), 63.5%; on ACKR3 (replicate 3), 94.7%. In addition, the activation at CCR3 (replicate 1) was 22.6%; at CCR3 (replicate 2), -7.56%; at CCR10 (setting [1]), -1.41%; at CCR10 (setting [2]), -7.38%; on CCR10 (setting [3]), 5.94%; on CXCR1 (setting [4]), -0.474%. Further, the activation at CXCR1 (setting [5]) was -0.947%; at CXCR1 (setting [6]), 0.71%; at CCR9 (setting [7]), -1.23%; on CCR9 (setting [8]), -1.3%; at CCR9 (setting [9]), 15.7%; at CCR8 (replicate 1), 2.83%. The activation on CCR8 (replicate 2) is -25.3%; on CCR8 (replicate 3), 18.8%; at CXCR6 (setting [10]), -1.05%; at CXCR6 (setting [11]) it was -1.2%; at CXCR6 (setting [12]), 0.0809%.

Turning to `NC(=O)[C@H](Cc1ccccc1)NC(=O)[C@H](Cc1c[nH]c2ccccc12)NC(=O)[C@@H]1CCCN1C(=O)[C@@H](N)Cc1ccc(O)cc1` [Endomorphin-1], the activation is 3.4% on ACKR4 (replicate 1); 1.77% at ACKR4 (replicate 2); 5.29% on ACKR3 (replicate 1); 17% on ACKR3 (replicate 2); 18.4% on CCR3 (replicate 1); 4.97% on CCR3 (replicate 2). The activation at CCR10 (setting [1]) is -5.29%; at CCR10 (setting [2]) it was 7.53%; at CXCR1 (setting [4]) it was 0.195%; at CXCR1 (setting [5]) it was -0.597%; at CCR9 (setting [7]) it was -1.12%; at CCR9 (setting [8]), 1.74%. Also, the activation on CCR8 (replicate 1) is -25.5%; at CCR8 (replicate 2) it was 19.4%; at CXCR6 (setting [10]) it was -0.315%; at CXCR6 (setting [11]), 1.12%.

`C[C@H](NC(=O)CNC(=O)[C@@H](NC(=O)[C@H](Cc1ccccc1)NC(=O)CNC(=O)CNC[C@@H](N)Cc1ccccc1)[C@@H](C)O)C(=O)N[C@@H](CCCNC(=N)N)C(=O)N[C@@H](CCCCN)C(=O)N[C@@H](CO)C(=O)N[C@@H](C)C(=O)N[C@@H](CCCNC(=N)N)C(=O)N[C@@H](CCCCN)C(N)=O` [FG Nociceptin 1-13] (H-[X1]GFTGARKSARK-NH2): the activation at ACKR4 (replicate 2) is -0.784%; on ACKR4 (replicate 3), 0.45%; on ACKR3 (replicate 1) it was 61.5%; on ACKR3 (replicate 2), 58.4%; at ACKR3 (replicate 3), 66%; on CCR3 (replicate 1), 13%. In addition, the activation at CCR3 (replicate 2) was 6.22%; at CCR3 (replicate 3), 14.1%; on CCR10 (setting [1]), -1.11%; at CCR10 (setting [2]) it was -2.39%; on CCR10 (setting [3]), 7.95%; at CXCR1 (setting [4]), -0.231%. Besides, the activation on CXCR1 (setting [5]) was 1.41%; on CXCR1 (setting [6]), 1.07%; on CCR9 (setting [7]), -2.13%; on CCR9 (setting [8]), 0.443%; at CCR9 (setting [9]), 0.538%; at CCR8 (replicate 1), -24.5%. Also, the activation at CCR8 (replicate 2) was 3.75%; on CCR8 (replicate 3) it was 4.53%; at CXCR6 (setting [10]) it was -0.041%; at CXCR6 (setting [11]), 0.0677%; on CXCR6 (setting [12]), 0.612%.
